Experimental data: ChEMBL document CHEMBL1649420, “Identifying chelators for metalloprotein inhibitors using a fragment-based approach” (J Med Chem, 2011)

What was measured:
[1] = target: T1, Tyrosinase (Agaricus bisporus) (UniProt O42713); details: at 1 mM;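 note: inhibition measured at 10 min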
T1 sequence (whole entry): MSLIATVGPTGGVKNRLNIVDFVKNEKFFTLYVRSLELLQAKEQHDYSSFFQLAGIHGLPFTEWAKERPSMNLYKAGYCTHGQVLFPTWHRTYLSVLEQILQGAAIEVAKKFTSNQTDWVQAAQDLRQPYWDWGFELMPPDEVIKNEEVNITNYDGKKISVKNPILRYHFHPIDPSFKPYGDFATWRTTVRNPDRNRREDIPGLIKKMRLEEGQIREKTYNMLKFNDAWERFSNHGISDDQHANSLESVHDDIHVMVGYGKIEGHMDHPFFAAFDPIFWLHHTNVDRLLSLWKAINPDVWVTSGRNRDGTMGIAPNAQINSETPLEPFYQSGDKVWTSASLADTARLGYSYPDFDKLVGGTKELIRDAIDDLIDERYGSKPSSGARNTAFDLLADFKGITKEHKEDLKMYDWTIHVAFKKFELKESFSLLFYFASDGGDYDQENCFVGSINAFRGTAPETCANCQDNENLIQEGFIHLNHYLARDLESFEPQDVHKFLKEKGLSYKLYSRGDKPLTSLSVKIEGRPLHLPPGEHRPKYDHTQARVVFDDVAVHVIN

[2] = target: Stromelysin-1 (Homo sapiens) (UniProt P08254); details: at 1 mM;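 note: recombinant enzyme, inhibition read after a 30 min incubation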
Chain of Stromelysin-1 (Homo sapiens) (P08254 100-477 limits assumed): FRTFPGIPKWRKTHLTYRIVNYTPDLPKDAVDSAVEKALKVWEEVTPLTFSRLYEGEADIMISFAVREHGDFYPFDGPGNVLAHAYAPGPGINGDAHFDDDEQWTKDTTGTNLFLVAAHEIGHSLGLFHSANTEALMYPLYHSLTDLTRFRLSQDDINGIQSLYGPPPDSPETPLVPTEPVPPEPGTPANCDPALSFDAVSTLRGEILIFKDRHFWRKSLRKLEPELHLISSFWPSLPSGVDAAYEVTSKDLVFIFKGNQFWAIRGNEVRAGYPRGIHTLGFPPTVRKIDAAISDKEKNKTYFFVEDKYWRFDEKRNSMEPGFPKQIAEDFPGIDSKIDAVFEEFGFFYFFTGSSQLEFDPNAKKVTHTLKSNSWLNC

[3] = target: Matrix metalloproteinase-9 (Homo sapiens) (UniProt P14780); details: at 1 mM;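 note: recombinant human MMP9, activity read after 30 min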
Chain of Matrix metalloproteinase-9 (Homo sapiens) (P14780 whole entry): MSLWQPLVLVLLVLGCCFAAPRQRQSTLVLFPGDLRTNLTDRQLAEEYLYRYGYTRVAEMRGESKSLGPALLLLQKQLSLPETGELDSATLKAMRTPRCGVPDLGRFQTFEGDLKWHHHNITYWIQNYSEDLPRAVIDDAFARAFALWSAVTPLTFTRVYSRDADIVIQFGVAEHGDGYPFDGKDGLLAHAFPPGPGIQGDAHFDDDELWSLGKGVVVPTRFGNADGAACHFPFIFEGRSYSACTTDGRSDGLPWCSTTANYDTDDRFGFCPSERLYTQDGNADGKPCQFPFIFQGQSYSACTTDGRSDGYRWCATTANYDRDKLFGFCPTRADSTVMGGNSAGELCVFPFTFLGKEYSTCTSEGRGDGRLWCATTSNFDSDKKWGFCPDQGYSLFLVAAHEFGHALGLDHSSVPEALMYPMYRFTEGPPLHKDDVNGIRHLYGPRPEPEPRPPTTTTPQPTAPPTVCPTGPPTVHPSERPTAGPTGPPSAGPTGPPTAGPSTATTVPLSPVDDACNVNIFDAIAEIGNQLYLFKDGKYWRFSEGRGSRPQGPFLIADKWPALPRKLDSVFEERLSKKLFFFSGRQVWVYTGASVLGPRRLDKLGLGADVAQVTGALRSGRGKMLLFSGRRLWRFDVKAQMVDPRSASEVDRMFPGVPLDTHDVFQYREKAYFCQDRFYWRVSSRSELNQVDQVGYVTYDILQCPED

[4] = target: Neutrophil collagenase (Homo sapiens) (UniProt P22894); details: at 1 mM;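 note: recombinant human MMP8 enzyme, percent inhibition read after 30 min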
Chain of Neutrophil collagenase (Homo sapiens) (P22894 101-467 limits assumed): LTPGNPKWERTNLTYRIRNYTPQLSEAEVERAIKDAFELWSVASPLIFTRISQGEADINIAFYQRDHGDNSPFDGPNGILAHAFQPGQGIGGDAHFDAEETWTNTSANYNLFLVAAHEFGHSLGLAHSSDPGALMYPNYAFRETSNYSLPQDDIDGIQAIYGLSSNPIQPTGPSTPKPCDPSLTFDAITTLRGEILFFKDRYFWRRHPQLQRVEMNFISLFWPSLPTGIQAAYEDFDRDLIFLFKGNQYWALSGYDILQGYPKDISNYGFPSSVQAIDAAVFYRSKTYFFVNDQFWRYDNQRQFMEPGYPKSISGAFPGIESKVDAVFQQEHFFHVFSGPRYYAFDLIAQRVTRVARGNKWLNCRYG

[5] = target: T2, Interstitial collagenase (Homo sapiens) (UniProt P03956); details: at 1 mM;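 note: recombinant human enzyme, with inhibition measured after 30 min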
T2 sequence (whole entry): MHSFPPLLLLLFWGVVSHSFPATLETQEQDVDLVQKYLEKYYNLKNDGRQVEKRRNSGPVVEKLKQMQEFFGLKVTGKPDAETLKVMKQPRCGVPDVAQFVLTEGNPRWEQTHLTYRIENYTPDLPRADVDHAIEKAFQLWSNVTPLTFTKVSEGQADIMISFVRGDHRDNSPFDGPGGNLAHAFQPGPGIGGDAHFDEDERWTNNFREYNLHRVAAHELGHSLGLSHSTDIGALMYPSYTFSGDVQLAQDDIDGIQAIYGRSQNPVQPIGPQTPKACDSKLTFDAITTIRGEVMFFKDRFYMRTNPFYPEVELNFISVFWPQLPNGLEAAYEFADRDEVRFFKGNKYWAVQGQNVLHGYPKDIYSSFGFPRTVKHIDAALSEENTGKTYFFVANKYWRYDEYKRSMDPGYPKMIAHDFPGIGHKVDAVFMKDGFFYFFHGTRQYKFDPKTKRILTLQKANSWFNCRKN

[6] = target: T3, Polyunsaturated fatty acid 5-lipoxygenase (Homo sapiens) (UniProt P09917); assay: Inhibition of human recombinant 5-lipoxygenase at 1 mM after 10 mins by fluorescence assay
T3 sequence (whole entry): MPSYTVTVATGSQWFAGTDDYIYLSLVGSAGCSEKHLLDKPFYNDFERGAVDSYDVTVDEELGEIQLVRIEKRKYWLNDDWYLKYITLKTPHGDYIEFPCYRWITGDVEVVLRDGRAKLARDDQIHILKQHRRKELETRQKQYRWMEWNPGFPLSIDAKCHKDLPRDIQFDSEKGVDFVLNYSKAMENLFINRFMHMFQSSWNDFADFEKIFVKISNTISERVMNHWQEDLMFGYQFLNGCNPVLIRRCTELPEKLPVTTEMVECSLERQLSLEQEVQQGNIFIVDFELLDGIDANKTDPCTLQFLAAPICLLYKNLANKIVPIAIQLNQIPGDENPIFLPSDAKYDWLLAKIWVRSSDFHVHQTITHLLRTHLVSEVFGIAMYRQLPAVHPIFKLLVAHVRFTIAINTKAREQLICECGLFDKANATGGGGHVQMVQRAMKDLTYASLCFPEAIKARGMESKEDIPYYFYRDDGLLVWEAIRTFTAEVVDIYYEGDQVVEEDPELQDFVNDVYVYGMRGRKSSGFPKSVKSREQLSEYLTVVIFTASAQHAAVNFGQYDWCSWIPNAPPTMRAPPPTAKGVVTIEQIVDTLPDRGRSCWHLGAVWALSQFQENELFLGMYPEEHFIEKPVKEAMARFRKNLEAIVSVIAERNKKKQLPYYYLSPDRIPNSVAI

[7] = target: T4, Lethal factor (Bacillus anthracis) (UniProt P15917); details: at 1 mM
T4 sequence (whole entry): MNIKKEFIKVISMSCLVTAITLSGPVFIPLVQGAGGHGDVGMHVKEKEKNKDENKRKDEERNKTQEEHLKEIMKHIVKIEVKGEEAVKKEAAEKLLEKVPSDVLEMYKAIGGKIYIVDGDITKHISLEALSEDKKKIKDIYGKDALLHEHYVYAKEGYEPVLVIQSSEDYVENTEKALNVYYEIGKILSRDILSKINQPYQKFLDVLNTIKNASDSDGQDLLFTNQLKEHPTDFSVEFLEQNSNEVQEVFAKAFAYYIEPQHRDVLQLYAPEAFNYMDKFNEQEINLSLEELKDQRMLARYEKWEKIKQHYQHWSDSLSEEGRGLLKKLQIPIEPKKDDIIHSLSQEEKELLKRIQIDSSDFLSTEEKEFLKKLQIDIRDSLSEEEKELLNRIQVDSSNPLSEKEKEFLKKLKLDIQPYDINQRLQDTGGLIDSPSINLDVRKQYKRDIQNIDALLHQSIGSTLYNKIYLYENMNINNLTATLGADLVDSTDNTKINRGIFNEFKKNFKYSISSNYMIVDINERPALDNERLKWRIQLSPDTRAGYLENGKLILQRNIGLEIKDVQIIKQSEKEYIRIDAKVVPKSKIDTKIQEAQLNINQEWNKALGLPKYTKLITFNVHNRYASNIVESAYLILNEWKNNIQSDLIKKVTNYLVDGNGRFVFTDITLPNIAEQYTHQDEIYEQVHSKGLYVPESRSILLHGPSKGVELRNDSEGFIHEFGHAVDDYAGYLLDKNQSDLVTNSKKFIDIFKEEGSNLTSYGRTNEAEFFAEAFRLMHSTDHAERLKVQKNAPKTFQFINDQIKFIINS

[8] = target: 72 kDa type IV collagenase (Homo sapiens, UniProt P08253); details: at 1 mM;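 note: recombinant human enzyme, inhibition read after a 30 min incubation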
Chain of 72 kDa type IV collagenase (P08253 110-660 limits assumed): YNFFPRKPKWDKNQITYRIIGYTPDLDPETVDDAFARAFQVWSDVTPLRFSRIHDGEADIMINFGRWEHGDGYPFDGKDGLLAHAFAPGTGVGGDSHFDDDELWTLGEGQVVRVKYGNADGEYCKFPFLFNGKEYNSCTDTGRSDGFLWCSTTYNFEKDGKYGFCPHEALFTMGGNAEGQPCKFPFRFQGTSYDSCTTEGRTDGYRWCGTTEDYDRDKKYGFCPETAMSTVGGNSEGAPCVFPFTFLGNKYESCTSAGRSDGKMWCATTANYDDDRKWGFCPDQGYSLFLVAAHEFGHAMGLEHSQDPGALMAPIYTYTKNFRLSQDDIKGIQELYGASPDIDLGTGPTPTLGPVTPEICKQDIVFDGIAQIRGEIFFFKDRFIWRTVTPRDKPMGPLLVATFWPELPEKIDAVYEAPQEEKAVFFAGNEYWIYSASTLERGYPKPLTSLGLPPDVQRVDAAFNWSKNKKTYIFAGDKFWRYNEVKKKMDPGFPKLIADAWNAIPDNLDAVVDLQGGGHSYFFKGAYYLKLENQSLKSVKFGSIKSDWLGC

In the case of [O-][n+]1ccccc1S, the inhibition [1] is reported as 81%, the inhibition [2] is reported as 100% and the inhibition [3] is reported as 77%. It also gave an inhibition [4] of 90%, an inhibition [5] of 78% and an inhibition [6] of 70%. It also gave an inhibition [7] of 23% and an inhibition [8] of 91%.

In the case of Cc1ccc(C(=O)O)c(C(=O)O)n1, the inhibition [1] is reported as 96%, the inhibition [2] is reported as 28% and the inhibition [3] is reported as -10%. For the same compound, the inhibition [4] was 11%, the inhibition [5] was 8% and the inhibition [6] was 22%. For the same compound, the inhibition [7] was 43%.

In the case of Cc1c(O)c(=S)ccn1C, the inhibition [1] is reported as 100%, the inhibition [2] is reported as 99% and the inhibition [3] is reported as 100%. For the same compound, the inhibition [4] was 95%, the inhibition [5] was 78% and the inhibition [6] was 95%. It also gave an inhibition [7] of 51% and an inhibition [8] of 100%.

Nc1cccc2cccnc12 showed an inhibition [2] of 56%, an inhibition [3] of 57% and an inhibition [4] of 61%. It also gave an inhibition [5] of 63%, an inhibition [7] of 30% and an inhibition [8] of 51%.

Work on O=c1cc[nH]c(=S)[nH]1 yielded an inhibition [1] of 36%, an inhibition [2] of 47% and an inhibition [3] of 44%. It also gave an inhibition [4] of 37%, an inhibition [5] of 52% and an inhibition [7] of 33%. It also gave an inhibition [8] of 47%.

Oc1ccc2ccccc2c1O was tested, and the inhibition [2] was 89%, the inhibition [3] was 86% and the inhibition [4] was 100%. For the same compound, the inhibition [5] was 71%, the inhibition [6] was 69% and the inhibition [7] was 85%. It also gave an inhibition [8] of 71%.

For Oc1ccccc1-c1nc2ccccc2s1, the inhibition [1] was 34%, the inhibition [2] was 4% and the inhibition [3] was 3%. It also gave an inhibition [4] of 40%, an inhibition [5] of 6% and an inhibition [7] of 1%. It also gave an inhibition [8] of 7%.

Compound Oc1ccccc1-c1nc2ccccc2o1 has an inhibition [1] of 3%, an inhibition [2] of 4% and an inhibition [4] of 28%. For the same compound, the inhibition [5] was 11%, the inhibition [7] was 0% and the inhibition [8] was 1%.

Compound Oc1ccc(Cl)c2cccnc12 has an inhibition [1] of 0%, an inhibition [2] of 45% and an inhibition [3] of 1%. The inhibition [4] was 73%, the inhibition [5] was 39% and the inhibition [7] was 44%. For the same compound, the inhibition [8] was 60%.

In the case of Oc1nccc(S)n1, the inhibition [1] is reported as 44%, the inhibition [2] is reported as 95% and the inhibition [3] is reported as 90%. The inhibition [4] was 83%, the inhibition [5] was 90% and the inhibition [6] was 46%. The inhibition [7] was 22%.

Compound CCn1ccc(=S)c(O)c1C has an inhibition [1] of 100%, an inhibition [2] of 99% and an inhibition [3] of 100%. It also gave an inhibition [4] of 93%, an inhibition [5] of 98% and an inhibition [6] of 96%. It also gave an inhibition [7] of 60% and an inhibition [8] of 100%.

COc1ccccc1S gave an inhibition [2] of -8%, an inhibition [3] of 17% and an inhibition [4] of 26%. It also gave an inhibition [5] of 11%, an inhibition [7] of 19% and an inhibition [8] of 3%.

Compound CC(C)c1cccc(C(=O)O)c1O has an inhibition [1] of 91%, an inhibition [2] of 5% and an inhibition [3] of 9%. For the same compound, the inhibition [4] was 3%, the inhibition [5] was 13% and the inhibition [6] was -3%. For the same compound, the inhibition [7] was -3% and the inhibition [8] was -2%.

Compound Oc1cc(O)nc(S)n1 has an inhibition [1] of 99%, an inhibition [2] of 38% and an inhibition [3] of 15%. The inhibition [4] was 25%, the inhibition [5] was 30% and the inhibition [6] was 72%. It also gave an inhibition [7] of 18% and an inhibition [8] of 17%.

In the case of O=C1C=C(O)C(=O)c2ccccc21, the inhibition [1] is reported as 69%, the inhibition [2] is reported as 84% and the inhibition [3] is reported as 85%. For the same compound, the inhibition [4] was 86%, the inhibition [5] was 86% and the inhibition [6] was 100%. For the same compound, the inhibition [7] was 100% and the inhibition [8] was 84%.

In the case of CS(=O)(=O)Nc1cccc2cccnc12, the inhibition [2] is reported as 64%, the inhibition [3] is reported as 59% and the inhibition [4] is reported as 75%. The inhibition [5] was 57%, the inhibition [6] was 13% and the inhibition [8] was 84%.

With Cc1cc(=O)[nH]c(=S)[nH]1 the inhibition [1] was 31%, the inhibition [2] was 37% and the inhibition [3] was 27%. The inhibition [4] was 31%, the inhibition [5] was 40% and the inhibition [6] was 70%. The inhibition [7] was 29% and the inhibition [8] was 26%.

Work on O=c1ccc2ccccc2[nH]1 yielded an inhibition [1] of 5%, an inhibition [2] of 3% and an inhibition [3] of 5%. The inhibition [4] was 33%, the inhibition [5] was 20% and the inhibition [6] was 22%. It also gave an inhibition [7] of 36% and an inhibition [8] of 5%.

Cn1cccc(O)c1=S showed an inhibition [1] of 93%, an inhibition [2] of 90% and an inhibition [3] of 96%. For the same compound, the inhibition [4] was 96%, the inhibition [5] was 89% and the inhibition [6] was 93%. The inhibition [7] was 56% and the inhibition [8] was 100%.

In the case of CCc1c(O)c(=S)ccn1CC, the inhibition [1] is reported as 100%, the inhibition [2] is reported as 99% and the inhibition [3] is reported as 100%. It also gave an inhibition [4] of 94%, an inhibition [5] of 81% and an inhibition [6] of 97%. It also gave an inhibition [7] of 55% and an inhibition [8] of 100%.

O=C(O)c1ccc(O)c(O)c1 gave an inhibition [1] of 50%, an inhibition [2] of 0% and an inhibition [3] of -1%. The inhibition [4] was 13%, the inhibition [5] was 14% and the inhibition [6] was 86%. It also gave an inhibition [7] of 21% and an inhibition [8] of -8%.

Compound Cc1cc(C)nc(S)n1 has an inhibition [1] of 99%, an inhibition [2] of 70% and an inhibition [3] of 56%. The inhibition [4] was 49%, the inhibition [5] was 56% and the inhibition [6] was 80%. The inhibition [7] was 15% and the inhibition [8] was 55%.
